Test results taken from US12198788B2, “System for detecting an intraoral disease and determining a personalized treatment scheme and method of doing same” (priority 2017, dated 2025).

Key:
dental plaque microbes = assay: Culture of dental plaque microbes, streak applied to inoculum, 2 days incubation (FIG. 5); type: cell-based; settings: 2 days of incubation
[1] = tested on: dental pulp tissue (dental pulp extraction with chronic pulpitis); assay: Live bacterial cell counting after cannabinoid treatment, dental pulp tissue; type: cell-based, human
Protocol: (§1) Summary: The method includes: • a. randomized sampling of oral plaque biofilm from different consumers with 0-+4 DPSI, dental pulp extraction with chronic pulpitis; • b. cultivation of the samples in incubator with 37° C., for 1 day. The colonies underwent treatment with different types of compounds CBC, CBD, CBG, CBGA, CBN for 5 minutes; • c. staining with fluorescent special dyes for live bacterial cells, following the cannabinoid compounds' treatment and using one referral without cannabinoids treatment; • d. mounting on 6 channel micro slide dishes with 0.1 high; • e. imaging with Cytetion 5 Biotek microscope on 40 magnification, analyzing and running live cell counting.
Experimental methods: FIG. 6 depicts the steps of the methodology used in this protocol. The methodology includes the following steps: • a. Sample cultivation: Samples are collected with Flexi Grip 1702 Paro interdental brush. Cultivation on AGAR Petri Dish 100/15 mm incubated for 24 hours in 37° C. • b. Compound Treatment: The colonies are treated with 25%, 12.5% dilutions from 5 different type extracts from grower A+B. 0.5 μL compound were place in each vial, 3 colony spots were added, the mixture was agitated in centrifuge with 6-8.000 rpm for 1.5 min and suspended in 500 μL PBS. • c. Staining Mounting: Staining kit Bacstain—CTC Rapid Staining kit BS02 was used. All 5 samples and 1 referral were stained. […]

[2] = tested on: human oral biofilms (dental plaque); assay: Live bacterial cell counting (CTC staining, Cytation 5 imaging) after cannabinoid treatment of dental plaque colonies; type: cell-based
Protocol: This study evaluates different extracts/compounds on different types of human oral biofilms that normally are plaque-generating, further inducing light to severe periodontal diseases, as scored by DPSI (Dutch periodontic screening index).
as §1, with “counting. […]” for “counting.”
The same procedure was employed on the second slide with the cells treated with 25% dilution of the cannabinoid of grower B. Accordingly slide 3 had the cells from grower A with 12.5% dilution and slide 4 had the cells 12.5% dilution from grower B. • d. […] Imaging modes include fluorescence, brightfield, color brightfield and phase contrast for a broad range of applications including live cell imaging, phenotypic assays, and 3D spheroids. […]

[3] = tested on: dental bacteria taken from various patients (oral flora); assay: In vitro determination of sensitivity of dental biofilm flora from individual patients to cannabinoid test panels; type: cell-based
Excerpt: Methods of the present invention are hereby exemplified. The trial included two stages: • a. Stage 1: In vitro determination of sensitivity of dental biofilm flora from individual patients to cannabinoid test panels. • b. Stage 2: Effectiveness of toothpaste compounded to individual patient's best cannabinoid panel formulations. Stage 1: In Vitro Determination of Sensitivity of Dental Biofilm Flora from Individual Patients to Cannabinoid Test Panels.
Ten (10) subjects (patients A-J) were involved in the trial. Dental biofilm was collected of these subjects by means of swabs, scrapes and other devices. The bacteria of this dental biofilm were characterized by conventional methods such as growth on selective media, microscopic examination and lab on-chip-laser analysis (e.g. Parochip).
Patient's bacteria from patients A-J were tested in vitro on substrates seeded with a panel of cannabinoids as illustrated in table 1 below:
Column Panels: • 1=CBDA; • 2=CBDA+CBNA; • 3=CBDA+CBNA+CBGA; • 4=CBDA+CBNA+CBGA+CBCA; • 5=CBDA+CBNA+CBGA+CBCA+CBNDA; • 6=Chlorohexadine control, and • 7=control with no antiseptic.
Results of in vitro testing are defined in terms of efficacy of panel cannabinoids in in vitro suppressing oral flora, in increasing scale of: • −, +, ++, +++, ++++, +++++

Compound	bacterial growth at streak applied to inoculum (dental plaque microbes)	reduction from the live bacterial cells [1]	most efficient compound on the plaque of the consumer ([2]; 25% dilution, grower A, FIG. 10)	reduction from the live bacterial cells ([2]; dental plaque)	effectiveness against the flora (in words) ([3]; flora of patient B)	in vitro effectiveness of cannabinoids on dental bacteria ([3]; oral flora sample of patient A)	in vitro effectiveness of cannabinoids on dental bacteria ([3]; oral flora sample of patient B)	in vitro effectiveness of cannabinoids on dental bacteria ([3]; oral flora sample of patient C)	in vitro effectiveness of cannabinoids on dental bacteria ([3]; oral flora sample of patient D)	in vitro effectiveness of cannabinoids on dental bacteria ([3]; oral flora sample of patient E)	in vitro effectiveness of cannabinoids on dental bacteria ([3]; oral flora sample of patient F)	in vitro effectiveness of cannabinoids on dental bacteria ([3]; oral flora sample of patient G)	in vitro effectiveness of cannabinoids on dental bacteria ([3]; oral flora sample of patient H)	in vitro effectiveness of cannabinoids on dental bacteria ([3]; oral flora sample of patient I)	in vitro effectiveness of cannabinoids on dental bacteria ([3]; oral flora sample of patient J)
C=C(C)[C@@H]1CCC(C)=C[C@H]1c1c(O)cc(CCCCC)cc1O [CBD, Cannabidiol]	no bacterial growth	92%													
CCCCCc1cc(O)c(C/C=C(\C)CCC=C(C)C)c(O)c1C(=O)O [CBGA, Cannabigerolic acid]			most efficient	95%											
C=C(C)[C@@H]1CCC(C)=C[C@H]1c1c(O)cc(CCCCC)c(C(=O)O)c1O [Panel 1, Cannabidiolic acid]					effective	++	+++++	++++	+	+++	−	+++++	++	−	−
[H]/N=C(\N/C(=N/[H])NCCCCCCNC(=N)NC(=N)Nc1ccc(Cl)cc1)Nc1ccc(Cl)cc1 [Panel 6, Chlorhexidine, reference compound]						++	++	+	++	−	−	+++	+	++	−
